These results are taken from patent US9725463B2, “Substituted heterocyclic compounds as CRAC modulators” (LUPIN LIMITED, priority 2013, dated 2017).

This assay deals with IL-2 secretion by Jurkat T cells. As to the kind of experiment: Inhibition of IL-2 secretion. Type of assay: cell-based. Conditions: Homo sapiens; Jurkat T cells stimulated with PHA, 20 to 24 hours, IL-2 by ELISA. The method, then: The CRAC channel modulatory activity of the compounds were thus evaluated by measuring the secretion of IL-2 by antigen stimulated T-cells in vitro. Alternatively, such activity can also be evaluated by assay methods known to one skilled in the art.
Inhibition of IL-2 secretion: Jurkat T cells were seeded at a density of 0.5 to 1 million cells per well in RPMI medium. Test compounds from this invention were added to the cells at different concentrations. This was followed by the addition of PHA, a T cell mitogen after 10 minutes. The cells were then incubated for 20 to 24 hours in a CO2 incubator at 37° C. After incubation with the compounds, cells were centrifuged, the supernatant was collected and processed for ELISA to quantitate the amount of IL-2 secreted. A commercial ELISA kit (R&D Systems, Inc. Minneapolis, Minn., USA) was used to estimate the IL-2 concentrations. Amount of IL-2 secreted by cells stimulated with PHA was considered as a 100% maximal signal and the decrease in amount of IL-2 secreted by cells treated with the test compounds was expressed as percent inhibition of the maximal signal. The dose response data was analyzed using 4-parametric sigmoidal dose response (variable slope) curve-fit.

The molecule `Cc1c(-c2ccc(NC(=O)c3c(F)cccc3F)cc2)cnc2c1oc(=O)n2C` [Example 1, N-(4-(3,7-Dimethyl-2-oxo-2,3-dihydrooxazolo[4,5-b]pyridin-6-yl)phenyl)-2,6-difluorobenzamide] had an IC50 of 25 to 50 nM.

On to `CCc1c(-c2ccc(NC(=O)c3c(F)cccc3F)cc2)cnc2c1oc(=O)n2C` [Example 5, N-(4-(7-Ethyl-3-methyl-2-oxo-2,3-dihydrooxazolo [4,5-b]pyridin-6-yl)phenyl)-2,6-difluorobenzamide], for which the IC50 is less than 25 nM.

The molecule `CCc1c(-c2cnc(NC(=O)c3c(F)cccc3F)cn2)cnc2c1oc(=O)n2C` [Example 6, N-(5-(7-Ethyl-3-methyl-2-oxo-2,3-dihydrooxazolo [4,5-b]pyridin-6-yl)pyrazin-2-yl)-2,6-difluorobenzamide] registered a half-inhibitory concentration (IC50) of 100 to 500 nM.

Take `Cn1c(=O)oc2c(C3CC3)c(-c3ccc(NC(=O)c4c(F)cccc4F)cc3)cnc21` [Example 9, N-(4-(7-Cyclopropyl-3-methyl-2-oxo-2,3-dihydrooxazolo[4,5-b]pyridin-6-yl)phenyl)-2,6-difluorobenzamide]: the IC50 lay within 25 to 50 nM.

For the molecule `Cc1c(-c2ccc(NC(=O)c3c(F)cccc3F)cc2)ccc2c1oc(=O)n2C` [Example 14, N-(4-(3,7-Dimethyl-2-oxo-2,3-dihydrobenzo [d]oxazol-6-yl)phenyl)-2,6-difluorobenzamide], the half-inhibitory concentration (IC50) lay in the range of 50 to 100 nM.

With `CCc1c(-c2ccc(NC(=O)c3c(F)cccc3F)cc2)ccc2c1oc(=O)n2C` [Example 16, N-(4-(7-Ethyl-3-methyl-2-oxo-2,3-dihydrobenzo [d]oxazol-6-yl)phenyl)-2,6-difluorobenzamide], the IC50 lay within 25 to 50 nM.

The molecule `Cn1c(=O)oc2c(C3CC3)c(-c3ccc(NC(=O)c4c(F)cccc4F)cc3)ccc21` [Example 23, N-(4-(7-Cyclopropyl-3-methyl-2-oxo-2,3-dihydrobenzo[d]oxazol-6-yl)phenyl)-2,6-difluorobenzamide] registered a concentration for half-maximal inhibition (IC50) of 25 to 50 nM.

As to `Cn1c(=O)oc2c(C3CC3)c(-c3ccc(NC(=O)c4c(F)cccc4F)nc3)ccc21` [Example 25, N-(5-(7-Cyclopropyl-3-methyl-2-oxo-2,3-dihydrobenzo[d]oxazol-6-yl)pyridin-2-yl)-2,6-difluorobenzamide], the IC50 lay in the range of 25 to 50 nM.

Molecule `Cn1c(=O)oc2c(C3CC3)c(-c3cnc(NC(=O)c4c(F)cccc4F)cn3)ccc21` [Example 26, N-(5-(7-Cyclopropyl-3-methyl-2-oxo-2,3-dihydrobenzo[d]oxazol-6-yl)pyrazin-2-yl)-2,6-difluorobenzamide] displayed an IC50 of 100 to 500 nM.

Turning to `Cc1cc2oc(=O)n(C)c2cc1-c1ccc(NC(=O)c2c(F)cccc2F)cc1` [Example 27, N-(4-(3,6-Dimethyl-2-oxo-2,3-dihydrobenzo [d]oxazol-5-yl)phenyl)-2,6-difluorobenzamide], the IC50 is less than 25 nM.

`CCn1c(=O)oc2cc(C)c(-c3ccc(NC(=O)c4c(F)cccc4F)cc3)cc21` [Example 28, N-(4-(3-Ethyl-6-methyl-2-oxo-2,3-dihydrobenzo[d]oxazol-5-yl)phenyl)-2,6-difluorobenzamide] gave an IC50 of 50 to 100 nM.

The molecule `Cc1cc2oc(=O)n(CC3CC3)c2cc1-c1ccc(NC(=O)c2c(F)cccc2F)cc1` [Example 29, N-(4-(3-(Cyclopropylmethyl)-6-methyl-2-oxo-2,3-dihydrobenzo[d]oxazol-5-yl)phenyl)-2,6-difluorobenzamide] showed a half-maximal inhibitory concentration (IC50) of 25 to 50 nM.

On to `Cc1cc2oc(=O)n(CCF)c2cc1-c1ccc(NC(=O)c2c(F)cccc2F)cc1` [Example 30, 2,6-Difluoro-N-(4-(3-(2-fluoroethyl)-6-methyl-2-oxo-2,3-dihydrobenzo[d]oxazol-5-yl)phenyl)benzamide], for which the IC50 was less than 25 nM.

As for `Cc1cc2oc(=O)n(C(C)C)c2cc1-c1ccc(NC(=O)c2c(F)cccc2F)cc1` [Example 31, 2,6-Difluoro-N-(4-(3-isopropyl-6-methyl-2-oxo-2,3-dihydrobenzo[d]oxazol-5-yl)phenyl)benzamide], the concentration for half-maximal inhibition (IC50) is less than 25 nM.

The molecule `Cc1cc2oc(=O)n(C(F)F)c2cc1-c1ccc(NC(=O)c2c(F)cccc2F)cc1` [Example 32, N-(4-(3-(Difluoromethyl)-6-methyl-2-oxo-2,3-dihydrobenzo[d]oxazol-5-yl)phenyl)-2,6-difluorobenzamide] showed an IC50 of less than 25 nM.

The molecule `Cc1cc2oc(=O)n(CCC(F)(F)F)c2cc1-c1ccc(NC(=O)c2c(F)cccc2F)cc1` [Example 33, 2,6-Difluoro-N-(4-(6-methyl-2-oxo-3-(3,3,3-trifluoropropyl)-2,3-dihydrobenzo[d]oxazol-5-yl)phenyl) benzamide] gave a half-maximal inhibitory concentration (IC50) of 100 to 500 nM.

`CCCn1c(=O)oc2cc(C)c(-c3ccc(NC(=O)c4c(F)cccc4F)cc3)cc21` [Example 34, 2,6-Difluoro-N-(4-(6-methyl-2-oxo-3-propyl-2,3-dihydrobenzo [d]oxazol-5-371)phenyl)benzamide] returned an IC50 of less than 25 nM.

In the case of `Cn1c(=O)oc2cc(-c3ccc(NC(=O)c4c(F)cccc4F)cc3)c(C3CC3)nc21` [Example 36, N-(4-(5-Cyclopropyl-3-methyl-2-oxo-2,3-dihydrooxazolo [4,5-b]pyridin-6-yl)phenyl)-2,6-difluorobenzamide], the IC50 is less than 25 nM.

For the molecule `CCc1nc2c(cc1-c1ccc(NC(=O)c3c(F)cccc3F)cc1)oc(=O)n2C` [Example 37, N-(4-(5-Ethyl-3-methyl-2-oxo-2,3-dihydrooxazolo [4,5-b]pyridin-6-yl)phenyl)-2,6-difluorobenzamide], the IC50 is less than 25 nM.

`Cc1nc2c(cc1-c1ccc(NC(=O)c3c(F)cccc3F)cc1)oc(=O)n2C` [Example 38, N-(4-(3,5-dimethyl-2-oxo-2,3-dihydrooxazolo [4,5-b]pyridin-6-yl)phenyl)-2,6-difluorobenzamide] had an IC50 of less than 25 nM.

Regarding `Cn1c(=O)oc2cc(-c3ccc(NC(=O)c4c(F)cccc4F)cc3)c(C3CC3)cc21` [Example 42, N-(4-(5-Cyclopropyl-3-methyl-2-oxo-2,3-dihydrobenzo[d]oxazol-6-yl)phenyl)-2,6-difluorobenzamide], the IC50 is less than 25 nM.

For the molecule `CCc1cc2c(cc1-c1ccc(NC(=O)c3c(F)cccc3F)cc1)oc(=O)n2C` [Example 43, N-(4-(5-Ethyl-3-methyl-2-oxo-2,3-dihydrobenzo[d]oxazol-6-yl)phenyl)-2,6-difluorobenzamide], the half-maximal inhibitory concentration (IC50) is less than 25 nM.

`Cc1cc2oc(=O)n(C)c2cc1-c1ccc(NC(=O)c2c(F)cccc2Cl)cc1` [Example 46, 2-Chloro-N-(4-(3,6-dimethyl-2-oxo-2,3-dihydrobenzo[d]oxazol-5-yl)phenyl)-6-fluorobenzamide] registered a concentration for half-maximal inhibition (IC50) of 25 to 50 nM.

With `Cc1cc2oc(=O)n(C)c2cc1-c1ccc(NC(=O)c2c(C)cccc2F)cc1` [Example 49, N-(4-(3,6-Dimethyl-2-oxo-2,3-dihydrobenzo [d]oxazol-5-yl)phenyl)-2-fluoro-6-methylbenzamide], the 50% inhibitory concentration (IC50) lay within 25 to 50 nM.

In turn, `Cc1cc2oc(=O)n(C)c2cc1-c1cnc(NC(=O)c2c(F)cccc2F)cn1` [Example 51, N-(5-(3,6-dimethyl-2-oxo-2,3-dihydrobenzo[d]oxazol-5-yl)pyrazin-2-yl)-2,6-difluorobenzamide] displayed a half-inhibitory concentration (IC50) of 50 to 100 nM.

`Cc1cc2oc(=O)n(C)c2cc1-c1ccc(NC(=O)c2c(F)cccc2F)nc1` [Example 53, N-(5-(3,6-Dimethyl-2-oxo-2,3-dihydrobenzo [d]oxazol-5-yl)pyridin-2-yl)-2,6-difluoro benzamide] showed a half-maximal inhibitory concentration (IC50) of 25 to 50 nM.

As for `Cc1cc2oc(=O)n(C)c2cc1-c1ccc(NCc2c(F)cccc2F)cc1` [Example 55, 5-(4-((2,6-Difluorobenzyl)amino)phenyl)-3,6-dimethyl benzo[d] oxazol-2(3H)-one], the IC50 was less than 25 nM.

In turn, `Cc1cc2c(cc1-c1ccc(NC(=O)c3c(F)cccc3F)cc1)oc(=O)n2C` [Example 56, N-(4-(3,5-Dimethyl-2-oxo-2,3-dihydrobenzo [d]oxazol-6-yl)phenyl)-2,6-difluorobenzamide] displayed a half-maximal inhibitory concentration (IC50) of less than 25 nM.

For `Cc1cc2oc(=O)n(C)c2cc1-c1ccc(C(=O)Nc2c(F)cncc2F)s1` [Example 60, N-(3,5-Difluoropyridin-4-yl)-5-(3,6-dimethyl-2-oxo-2,3-dihydrobenzo [d]oxazol-5-yl) thiophene-2-carboxamide], the IC50 was less than 25 nM.

`Cc1cc2oc(=O)n(C)c2cc1-c1ccc(C(=O)Nc2c(Cl)cncc2Cl)s1` [Example 61, N-(3,5-Dichloropyridin-4-yl)-5-(3,6-dimethyl-2-oxo-2,3-dihydrobenzo [d]oxazol-5-yl)thiophene-2-carboxamide]: the IC50 lay within 25 to 50 nM.

Turning to `CCc1cc2c(cc1-c1ccc(NC(=O)c3c(F)cccc3F)nc1)oc(=O)n2C` [Example 69, N-(5-(5-Ethyl-3-methyl-2-oxo-2,3-dihydrobenzo [d]oxazol-6-yl)pyridin-2-yl)-2,6-difluoro benzamide], the 50% inhibitory concentration (IC50) lay within 25 to 50 nM.

As for `CCc1cc2c(cc1-c1cnc(NC(=O)c3c(F)cccc3F)cn1)oc(=O)n2C` [Example 70, N-(5-(5-Ethyl-3-methyl-2-oxo-2,3-dihydrobenzo [d]oxazol-6-yl)pyrazin-2-yl)-2,6-difluoro benzamide], the IC50 is less than 25 nM.

The molecule `Cn1c(=O)oc2cc(-c3cnc(NC(=O)c4c(F)cccc4F)cn3)c(C3CC3)cc21` [Example 72, N-(5-(5-Cyclopropyl-3-methyl-2-oxo-2,3-dihydrobenzo [d]oxazol-6-yl)pyrazin-2-yl)-2,6-difluorobenzamide] had a half-maximal inhibitory concentration (IC50) of 50 to 100 nM.
